Measured values published in doi:10.1101/2021.04.08.439011v1 (biorxiv, 2021).
Like-named read-outs stand apart in the source and are kept apart here.

What was measured:
ERK3 = ERK3 (Homo sapiens, UniProt Q16659); conditions: 0.1 µM; binder
CHEK1 = CHEK1 (Homo sapiens, UniProt O14757); conditions: 0.1 µM; binder
DRAK1 = DRAK1 (Homo sapiens, UniProt Q9UEE5); conditions: 0.1 µM; binder
MET(Y1235D) = MET(Y1235D) (Homo sapiens, UniProt P08581, Y1235D); conditions: 0.1 µM; binder
MKNK1 = MKNK1 (Homo sapiens, UniProt Q9BUB5); conditions: 0.1 µM; binder
PDGFRB = PDGFRB (Homo sapiens, UniProt P09619); conditions: 0.1 µM; binder
CLK2 = CLK2 (Homo sapiens, UniProt P49760); conditions: 0.1 µM; binder
TTK = TTK (Homo sapiens, UniProt P33981); conditions: 0.1 µM; binder
CDK9 = CDK9 (Homo sapiens, UniProt P50750); conditions: 0.1 µM; binder
PRKCE = PRKCE (Homo sapiens, UniProt Q02156); conditions: 0.1 µM; binder
YES = YES (Homo sapiens, UniProt P07947); conditions: 0.1 µM; binder
PAK6 = PAK6 (Homo sapiens, UniProt Q9NQU5); conditions: 0.1 µM; binder
ABL1 = ABL1 (Homo sapiens, UniProt P00519); conditions: 0.1 µM, binder
SIK1 = SIK1 (Homo sapiens, UniProt P57059); conditions: 0.1 µM; binder
ZAP70 = ZAP70 (Homo sapiens, UniProt P43403); conditions: 0.1 µM; binder
SBK1 = SBK1 (Homo sapiens, UniProt Q52WX2); conditions: 0.1 µM; binder
PLK1 = PLK1 (Homo sapiens, UniProt P53350); conditions: 0.1 µM; binder
FLT3(D835V) = FLT3(D835V) (Homo sapiens, UniProt P36888, D835V); conditions: 0.1 µM; binder
ABL1(M351T) = ABL1(M351T) (Homo sapiens, UniProt P00519, M351T); conditions: phosphorylated; 0.1 µM; binder
EIF2AK1 = EIF2AK1 (Homo sapiens, UniProt Q9BQI3); conditions: 0.1 µM; binder
CDC2L1 = CDC2L1 (Homo sapiens, UniProt P21127); conditions: 0.1 µM; binder
MYO3A = MYO3A (Homo sapiens, UniProt Q8NEV4); conditions: 0.1 µM; binder
S6K1 = S6K1 (Homo sapiens, UniProt P23443); conditions: 0.1 µM; binder
CAMK4 = CAMK4 (Homo sapiens, UniProt Q16566); conditions: 0.1 µM; binder
FLT3(D835H) = FLT3(D835H) (Homo sapiens, UniProt P36888, D835H); conditions: 0.1 µM; binder
PIK3CA(E545K) = PIK3CA(E545K) (Homo sapiens, UniProt P42336, E545K); conditions: 0.1 µM; binder
KIT(V559D,T670I) = KIT(V559D,T670I) (Homo sapiens, UniProt P10721, T670I/V559D); conditions: 0.1 µM; binder
CDKL2 = CDKL2 (Homo sapiens, UniProt Q92772); conditions: 0.1 µM; binder
RET(M918T) = RET(M918T) (Homo sapiens, UniProt P07949, M918T); conditions: 0.1 µM; binder
TNIK = TNIK (Homo sapiens, UniProt Q9UKE5); conditions: 0.1 µM; binder
Chain of TNIK (Q9UKE5 whole entry): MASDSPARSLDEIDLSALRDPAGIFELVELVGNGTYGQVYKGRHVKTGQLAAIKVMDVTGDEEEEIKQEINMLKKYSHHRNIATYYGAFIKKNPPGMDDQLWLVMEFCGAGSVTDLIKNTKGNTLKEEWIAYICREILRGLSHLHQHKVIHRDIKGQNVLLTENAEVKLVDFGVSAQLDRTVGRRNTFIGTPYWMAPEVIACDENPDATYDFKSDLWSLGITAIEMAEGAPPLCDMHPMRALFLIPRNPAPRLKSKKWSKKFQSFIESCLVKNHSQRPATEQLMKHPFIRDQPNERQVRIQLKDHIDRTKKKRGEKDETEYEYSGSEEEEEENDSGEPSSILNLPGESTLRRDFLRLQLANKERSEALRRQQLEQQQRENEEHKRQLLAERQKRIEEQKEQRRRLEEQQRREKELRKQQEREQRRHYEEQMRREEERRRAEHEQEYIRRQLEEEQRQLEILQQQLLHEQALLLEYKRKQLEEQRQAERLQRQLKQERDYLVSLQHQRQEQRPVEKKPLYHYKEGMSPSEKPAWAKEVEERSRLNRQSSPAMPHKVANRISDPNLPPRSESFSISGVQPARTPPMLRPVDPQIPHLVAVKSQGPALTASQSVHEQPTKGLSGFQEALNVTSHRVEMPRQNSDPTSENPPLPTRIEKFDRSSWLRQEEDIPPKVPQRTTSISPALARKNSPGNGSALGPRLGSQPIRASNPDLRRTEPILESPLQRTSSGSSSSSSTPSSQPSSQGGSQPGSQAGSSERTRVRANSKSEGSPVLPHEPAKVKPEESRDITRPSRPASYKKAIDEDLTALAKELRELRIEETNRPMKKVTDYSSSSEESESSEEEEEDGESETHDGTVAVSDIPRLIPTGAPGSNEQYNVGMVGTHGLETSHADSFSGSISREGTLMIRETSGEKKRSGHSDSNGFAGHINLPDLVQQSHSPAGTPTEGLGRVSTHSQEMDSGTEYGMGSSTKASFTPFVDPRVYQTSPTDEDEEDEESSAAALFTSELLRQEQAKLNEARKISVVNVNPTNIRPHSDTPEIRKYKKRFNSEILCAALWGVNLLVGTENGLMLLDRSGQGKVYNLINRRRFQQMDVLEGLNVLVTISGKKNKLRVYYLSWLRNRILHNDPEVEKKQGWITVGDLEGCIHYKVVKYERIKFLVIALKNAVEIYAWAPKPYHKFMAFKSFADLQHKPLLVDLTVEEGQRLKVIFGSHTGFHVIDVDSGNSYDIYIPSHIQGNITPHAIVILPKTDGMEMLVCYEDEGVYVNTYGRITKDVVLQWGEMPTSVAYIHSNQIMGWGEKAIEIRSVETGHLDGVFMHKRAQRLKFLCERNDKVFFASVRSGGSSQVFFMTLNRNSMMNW

Chain of CDK9 (P50750 whole entry): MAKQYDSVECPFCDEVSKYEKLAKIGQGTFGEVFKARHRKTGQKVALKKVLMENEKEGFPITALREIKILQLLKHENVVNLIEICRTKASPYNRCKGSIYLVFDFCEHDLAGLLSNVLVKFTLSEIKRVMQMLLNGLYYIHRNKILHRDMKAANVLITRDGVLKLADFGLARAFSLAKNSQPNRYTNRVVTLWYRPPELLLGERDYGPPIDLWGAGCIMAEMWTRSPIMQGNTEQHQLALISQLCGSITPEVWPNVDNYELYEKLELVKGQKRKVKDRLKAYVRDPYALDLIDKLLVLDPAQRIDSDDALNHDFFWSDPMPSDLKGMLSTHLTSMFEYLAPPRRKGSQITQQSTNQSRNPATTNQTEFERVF
Chain of RET(M918T) (P07949 whole entry M918T): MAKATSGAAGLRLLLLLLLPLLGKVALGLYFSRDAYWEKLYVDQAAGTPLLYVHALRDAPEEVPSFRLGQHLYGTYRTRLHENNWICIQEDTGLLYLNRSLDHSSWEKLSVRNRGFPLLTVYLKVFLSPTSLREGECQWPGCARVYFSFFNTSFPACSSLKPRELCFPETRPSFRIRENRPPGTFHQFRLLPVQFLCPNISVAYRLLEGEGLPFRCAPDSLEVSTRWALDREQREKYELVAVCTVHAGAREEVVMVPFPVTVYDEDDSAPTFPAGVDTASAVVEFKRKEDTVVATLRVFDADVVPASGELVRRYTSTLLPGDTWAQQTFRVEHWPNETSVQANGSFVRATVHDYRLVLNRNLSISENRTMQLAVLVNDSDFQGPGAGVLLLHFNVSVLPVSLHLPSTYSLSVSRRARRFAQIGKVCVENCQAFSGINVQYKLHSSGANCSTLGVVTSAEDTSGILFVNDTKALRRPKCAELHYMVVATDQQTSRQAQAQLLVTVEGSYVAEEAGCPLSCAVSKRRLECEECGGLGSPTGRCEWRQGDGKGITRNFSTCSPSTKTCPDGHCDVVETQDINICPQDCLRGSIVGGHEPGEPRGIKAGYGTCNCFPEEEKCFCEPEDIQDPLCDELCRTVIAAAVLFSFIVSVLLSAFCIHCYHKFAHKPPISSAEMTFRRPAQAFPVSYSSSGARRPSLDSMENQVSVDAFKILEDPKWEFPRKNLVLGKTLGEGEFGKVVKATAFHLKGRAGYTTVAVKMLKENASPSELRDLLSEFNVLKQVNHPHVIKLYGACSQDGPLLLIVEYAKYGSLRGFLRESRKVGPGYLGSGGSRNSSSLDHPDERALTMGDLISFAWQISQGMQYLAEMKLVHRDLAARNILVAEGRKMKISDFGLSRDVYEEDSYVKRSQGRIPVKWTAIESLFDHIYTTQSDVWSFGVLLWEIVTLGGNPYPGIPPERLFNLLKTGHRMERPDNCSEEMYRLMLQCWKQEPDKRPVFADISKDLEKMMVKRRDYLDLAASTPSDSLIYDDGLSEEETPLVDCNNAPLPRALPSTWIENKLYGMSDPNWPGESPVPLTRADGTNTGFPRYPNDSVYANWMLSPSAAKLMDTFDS
Chain of SBK1 (Q52WX2 whole entry): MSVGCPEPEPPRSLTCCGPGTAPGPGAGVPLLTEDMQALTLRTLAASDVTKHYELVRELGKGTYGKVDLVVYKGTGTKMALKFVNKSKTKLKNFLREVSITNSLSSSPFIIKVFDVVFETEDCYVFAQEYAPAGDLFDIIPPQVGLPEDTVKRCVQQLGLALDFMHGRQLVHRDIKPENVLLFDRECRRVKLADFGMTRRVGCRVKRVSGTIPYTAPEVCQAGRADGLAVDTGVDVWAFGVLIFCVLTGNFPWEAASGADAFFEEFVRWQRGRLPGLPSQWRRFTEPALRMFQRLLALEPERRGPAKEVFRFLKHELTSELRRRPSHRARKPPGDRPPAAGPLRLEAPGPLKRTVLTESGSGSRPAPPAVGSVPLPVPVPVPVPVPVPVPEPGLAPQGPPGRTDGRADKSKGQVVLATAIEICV
Chain of PDGFRB (P09619 whole entry): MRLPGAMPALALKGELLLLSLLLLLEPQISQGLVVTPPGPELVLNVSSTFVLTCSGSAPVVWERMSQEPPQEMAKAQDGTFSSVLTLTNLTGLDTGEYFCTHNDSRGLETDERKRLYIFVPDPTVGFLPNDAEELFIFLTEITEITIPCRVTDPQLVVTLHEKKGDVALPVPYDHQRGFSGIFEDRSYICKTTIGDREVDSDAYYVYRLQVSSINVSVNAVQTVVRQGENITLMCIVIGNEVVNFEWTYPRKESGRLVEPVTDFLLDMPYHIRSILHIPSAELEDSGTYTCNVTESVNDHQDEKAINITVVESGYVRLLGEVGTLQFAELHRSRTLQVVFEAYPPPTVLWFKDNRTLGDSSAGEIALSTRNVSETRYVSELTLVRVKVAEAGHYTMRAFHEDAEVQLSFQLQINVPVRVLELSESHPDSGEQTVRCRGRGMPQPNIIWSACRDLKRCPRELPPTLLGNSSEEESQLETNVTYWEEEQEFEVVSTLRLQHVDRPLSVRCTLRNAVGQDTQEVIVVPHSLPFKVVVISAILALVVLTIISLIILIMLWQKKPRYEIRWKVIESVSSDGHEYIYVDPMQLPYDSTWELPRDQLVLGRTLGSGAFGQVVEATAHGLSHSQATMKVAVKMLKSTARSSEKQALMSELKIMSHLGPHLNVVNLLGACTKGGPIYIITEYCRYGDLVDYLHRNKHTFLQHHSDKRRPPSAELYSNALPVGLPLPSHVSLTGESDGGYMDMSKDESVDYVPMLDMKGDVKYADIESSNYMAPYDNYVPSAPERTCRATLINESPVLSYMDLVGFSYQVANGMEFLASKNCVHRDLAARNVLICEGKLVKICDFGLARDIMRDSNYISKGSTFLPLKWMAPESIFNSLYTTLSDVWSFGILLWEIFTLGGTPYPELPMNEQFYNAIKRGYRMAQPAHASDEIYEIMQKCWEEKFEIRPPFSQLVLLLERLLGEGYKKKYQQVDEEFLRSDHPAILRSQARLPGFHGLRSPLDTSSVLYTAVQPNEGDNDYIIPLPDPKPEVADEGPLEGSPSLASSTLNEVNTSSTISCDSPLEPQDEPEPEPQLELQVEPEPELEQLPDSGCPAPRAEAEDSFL
Chain of EIF2AK1 (Q9BQI3 whole entry): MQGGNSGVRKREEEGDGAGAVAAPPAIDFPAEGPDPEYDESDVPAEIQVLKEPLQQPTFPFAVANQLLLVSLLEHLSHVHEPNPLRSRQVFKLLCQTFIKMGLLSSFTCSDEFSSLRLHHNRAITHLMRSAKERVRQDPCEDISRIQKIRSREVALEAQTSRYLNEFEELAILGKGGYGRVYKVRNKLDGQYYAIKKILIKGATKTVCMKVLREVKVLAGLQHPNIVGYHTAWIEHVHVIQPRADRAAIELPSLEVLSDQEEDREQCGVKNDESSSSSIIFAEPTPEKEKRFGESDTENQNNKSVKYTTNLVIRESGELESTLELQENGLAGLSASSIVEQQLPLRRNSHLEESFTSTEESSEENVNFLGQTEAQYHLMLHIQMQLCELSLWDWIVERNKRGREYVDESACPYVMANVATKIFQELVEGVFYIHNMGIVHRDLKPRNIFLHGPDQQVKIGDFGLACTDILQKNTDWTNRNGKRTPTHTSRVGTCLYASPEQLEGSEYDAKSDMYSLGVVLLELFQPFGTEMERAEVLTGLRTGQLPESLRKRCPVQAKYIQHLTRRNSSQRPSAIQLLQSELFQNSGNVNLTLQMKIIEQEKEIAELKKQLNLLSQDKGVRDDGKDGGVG

CNc1ncc2cc(-c3ccc(-c4cccc(C)n4)cc3Cl)c(=O)n(C[C@H]3OC[C@H](N)CO3)c2n1 [compound 6, G-5555] was tested, and the “Percent Control” value (ERK3) was 100%, the “Percent Control” value (CHEK1) was 100% and the “Percent Control” value (DRAK1) was 79%. For the same compound, the “Percent Control” value (MET(Y1235D)) was 100%, the “Percent Control” value (MKNK1) was 100% and the “Percent Control” value (PDGFRB) was 97%. The “Percent Control” value (CLK2) was 100%, the “Percent Control” value (TTK) was 100% and the “Percent Control” value (CDK9) was 100%. The “Percent Control” value (PRKCE) was 95%, the “Percent Control” value (YES) was 100% and the “Percent Control” value (PAK6) was 92%. The “Percent Control” value (ABL1; nonphosphorylated) was 94%, the “Percent Control” value (ABL1; phosphorylated) was 95% and the “Percent Control” value (SIK1) was 1.4%. The “Percent Control” value (ZAP70) was 100%, the “Percent Control” value (SBK1) was 98% and the “Percent Control” value (PLK1) was 82%. The “Percent Control” value (FLT3(D835V)) was 85%, the “Percent Control” value (ABL1(M351T)) was 100% and the “Percent Control” value (EIF2AK1) was 97%. The “Percent Control” value (CDC2L1) was 100%, the “Percent Control” value (MYO3A) was 100% and the “Percent Control” value (S6K1) was 92%. For the same compound, the “Percent Control” value (CAMK4) was 100%, the “Percent Control” value (FLT3(D835H)) was 89% and the “Percent Control” value (PIK3CA(E545K)) was 85%. For the same compound, the “Percent Control” value (KIT(V559D,T670I)) was 98%, the “Percent Control” value (CDKL2) was 100% and the “Percent Control” value (RET(M918T)) was 100%. For the same compound, the “Percent Control” value (TNIK) was 100%.
